Experimental data reported in PMC8763243, “Synthesis of Novel Suramin Analogs With Anti-Proliferative Activity via FGF1 and FGFRD2 Blockade” (Frontiers in Chemistry, 2022).
Several values for one entry are separate records, joined by “and”; a condition that tells them apart may be missing. Equal entries are not always repeated.

Experiments:
[1] = WST-1 assay, cytotoxicity in tumorigenic cells; type: cell-based, human; conditions: human; MCF-7 cells, 48 h, SigmaPlot; read-out: estimated IC50 (cytotoxicity)
Procedure: (§1) The water-soluble tetrazolium salt (WST-1) assay was performed to assess the effects of the compounds on cell proliferation and cytotoxicity. DMEM/F12 containing 10% FBS was used for the cell culture, and incubation was performed in 5% CO2 till the logarithmic growth phase was achieved. On the day before the experiment, the cells were trypsinized and seeded in a 96-well plate at a density of 5000 cells/well. For the FGF1-stimulated cell proliferation assay, the cells were then incubated for 24 h in a serum-free medium containing 0.1% bovine serum albumin (BSA). Serum-starved cells with or without a specified concentration of suramin, 14, 15, 17, 18, 21, and FGFRD2 were stimulated with 100 nM of FGF1 again for 48 h. For the purpose of the cytotoxicity assay, the cells were treated with an increased concentration of suramin and compounds 14, 17, 15, 18, and 21 (Figure 6) for 48 h. Also, 1/10 of the volume of WST-1 cell reagent was inserted in every well and maintained at 37°C for another 4 h before harvesting. There was gentle agitation of the medium in the cell culture plate for 10 min using a shaker. A Synergy 2 microplate reader (BioTek Instruments, Inc., VT, United States) was used to measure the absorbance at 450 nm. The relative absorbance was compared with the control treatment to determine the relative cell number.
(§2) […] […] The reason for the higher cytotoxicity was the presence of methyl groups on the suramin structure ([Martello et al., 2001]).
(§3) Suramin-induced neuropathy may depend on the effects on calcium (Ca^2+) homeostasis as a potential pathological mechanism, and the full or partial positive charge of the element when directly attached to the ring at each of the sulphonic groups (HSO3). These interactions exert a moderate to strong electron-withdrawing inductive effect, which may be responsible for the observed suramin cytotoxicity ([Prasetyaningrum et al., 2018]; [Von Der Ahe et al., 2018]). The cytotoxicity of the synthesized analogs was lower as there were methyl groups and no sulfonic acid groups attached to the suramin backbone. The IC50 values of the synthesized compounds in MCF-7 breast cancer cells were analyzed using SigmaPlot software.

[2] = tested on: MCF-7 cells; assay: WST-1 assay, cytotoxicity in tumorigenic cells; type: cell-based, human; conditions: for Mean (Blank 450) / Fold (mean) / Blank 450 / Fold: S8; for Fold (mean): relative to control; for Blank 450: single replicate absorbance; for Fold: single replicate relative to control; for cytotoxicity compared with suramin: MCF-7 cells, 1-100 µM, 48 h, especially at concentrations higher than 10 µM
Procedure: as §1, §2, §3

[3] = WST-1 assay, cytotoxicity in normal breast epithelial cell line (non-tumorigenic); type: cell-based; conditions: human; non-tumorigenic MCF-10A cells; read-out: estimated IC50 (cytotoxicity)
Procedure: as §1
In order to gain some insight about the selectivity of the compounds between tumorigenic and non-tumorigenic cells, the cytotoxicity was also being evaluated against normal breast cell lines by examining the cytotoxicity of suramin and its derivatives, compounds 15, 18, and 21, in a normal breast epithelial cell line (non-tumorigenic), MCF-10A. […] Compared to their cytotoxicity in tumorigenic MCF-7 cells (Figure 6), the estimated IC50 values in MCF-10A were higher than those in MCF-7 cells. […] However, the estimated IC50 value of suramin and its derivatives in both non-tumorigenic MCF-10A and tumorigenic MCF-7 cells were over 100 μM. The effective concentrations of suramin and its derivatives to attenuate FGF1-stimulated cell proliferation in MCF-7 cells were around 1 μM (Figure 5), which is non-toxic concentration to both MCF-7 cells and MCF-10A cells. […] Therefore, in addition to the specificity of each drug, the selectivity of suramin and its derivatives to disrupt the FGF1/FGFR-mediated breast cancer growth might rely on the overexpression or amplification of FGFR2 in breast cancer cells, but not in normal cells, and the secreted FGF1 ligand by autocrine or paracrine effects from cancer cells or their surrounding stroma cells or adipocytes (tumor microenvironment). The statistical data for the cytotoxicity are shown in Supplementary Figure S8.

[4] = molecular target: T1, FGF1 (Homo sapiens, UniProt P05230); assay: Fluorescence spectroscopy binding constant of FGF1 and suramin derivatives; conditions: fluorescence quenching, 5 µM FGF1, non-linear regression with Stern–Volmer equation, pH 6.5
T1 construct: made in house
Procedure: The binding constant Kd was calculated for FGF1 and the five derivatives in a buffer containing 10% D2O, 50 mM AMS, 20 mM phosphate buffer, and 50 mM NaCl at pH 6.5 using an F-2500 Hitachi fluorescence spectrophotometer.
[…] has tremendous significance for biochemical application because it provides valuable knowledge about the probability of quencher activity. The anti-mitogenic activity of the five compounds was achieved by the same mechanism in which suramin inhibits the mitogenic activity of FGF1. A non-linear regression curve was plotted for the relative intensities of activity versus drug concentration using the Stern–Volmer equation (Eq. 1). log(F0−F)/F=logK+nlog[Q], (1)
where F0 represents the fluorescence intensity in the absence of the compounds, and F represents the fluorescence intensity in the presence of the [Q] concentration of the compounds.
Increasing concentrations of these five suramin derivatives were added to a solution containing 5 µM FGF1. A reduction in the fluorescence intensity was reported for all five suramin derivatives. The Stern–Volmer equation was used to calculate the binding constant between FGF1 and compounds 14, 15, 17, 18, and 21 for relative intensities versus the total concentration in a non-linear regression curve.

[5] = tested on: MCF-7 cells; assay: WST-1 assay, FGF1-stimulated cell proliferation; type: cell-based, human; conditions: serum-starved MCF-7, 100 nM FGF1, 100 nM, 500 nM and 1 µM of test substance, 48 h
Procedure: as §1
Cell proliferation was measured using the WST-1 assay. […]

T1 sequence (P05230 whole entry): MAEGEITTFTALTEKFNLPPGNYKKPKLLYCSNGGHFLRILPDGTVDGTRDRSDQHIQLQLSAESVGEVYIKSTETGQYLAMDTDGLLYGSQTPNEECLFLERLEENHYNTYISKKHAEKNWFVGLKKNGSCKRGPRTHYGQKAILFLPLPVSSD

In the case of Cc1ccc(C(=O)Nc2ccc(S(=O)(=O)O)c3cc(S(=O)(=O)O)cc(S(=O)(=O)O)c23)cc1NC(=O)c1cccc(NC(=O)Nc2cccc(C(=O)Nc3cc(C(=O)Nc4ccc(S(=O)(=O)O)c5cc(S(=O)(=O)O)cc(S(=O)(=O)O)c45)ccc3C)c2)c1 [suramin], the IC50 at 48 h [1] is reported as over 100 µM, the “Mean (Blank 450)” value ([2]; 1 uM) is reported as 1.211 and the “Fold (mean)” value ([2]; 1 uM) is reported as 1.04. The “Blank 450” value ([2]; 1 uM) was 1.289 and 1.186 and 1.173 and 1.197, the Fold ([2]; 1 uM) was 1.106 and 1.018 and 1.007 and 1.027 and the “Mean (Blank 450)” value ([2]; 5 uM) was 1.160. For the same molecule, the “Fold (mean)” value ([2]; 5 uM) was 1.00, the “Blank 450” value ([2]; 5 uM) was 1.137 and 1.217 and 1.147 and 1.138 and the Fold ([2]; 5 uM) was 0.976 and 1.044 and 0.984 and 0.977. For the same molecule, the “Mean (Blank 450)” value ([2]; 10 uM) was 1.116, the “Fold (mean)” value ([2]; 10 uM) was 0.96 and the “Blank 450” value ([2]; 10 uM) was 1.187 and 1.064 and 1.159 and 1.052. The Fold ([2]; 10 uM) was 1.019 and 0.913 and 0.995 and 0.903, the “Mean (Blank 450)” value ([2]; 50 uM) was 1.004 and the “Fold (mean)” value ([2]; 50 uM) was 0.86. For the same molecule, the “Blank 450” value ([2]; 50 uM) was 0.936 and 0.988 and 1.088 and 1.004, the Fold ([2]; 50 uM) was 0.803 and 0.848 and 0.934 and 0.862 and the “Mean (Blank 450)” value ([2]; 100 uM) was 0.817. The “Fold (mean)” value ([2]; 100 uM) was 0.70, the “Blank 450” value ([2]; 100 uM) was 0.795 and 0.82 and 0.838 and 0.816 and the Fold ([2]; 100 uM) was 0.682 and 0.704 and 0.719 and 0.700. The “cytotoxicity compared with suramin” value [2] was “highest among all the analogs” and the IC50 at 48 h [3] was 222 ± 2.4 µM.

For O=C(Nc1ccc(C(=O)Nc2ccc(C(=O)Nc3cccc4cc(S(=O)(=O)O)ccc34)cc2)cc1)Nc1ccc(C(=O)Nc2ccc(C(=O)Nc3cccc4cc(S(=O)(=O)O)ccc34)cc2)cc1 [Compound 17, Sodium 5,5'-((4,4'-((4,4'-(carbonylbis (azanediyl))bis (benzoyl))bis (azanediyl))bis (benzoyl))bis(azanediyl)) bis (naphthalene-2-sulfonate)], the Kd [4] was 10.1 µM, the “effect on FGF1-stimulated cell proliferation” value [5] was “more potent inhibitory effects” and the IC50 at 48 h [1] was over 100 µM. The “Mean (Blank 450)” value ([2]; 0.5 uM) was 0.233, the “Fold (mean)” value ([2]; 0.5 uM) was 1.04 and the “Blank 450” value ([2]; 0.5 uM) was 0.241 and 0.231 and 0.216 and 0.243. For the same molecule, the Fold ([2]; 0.5 uM) was 1.082 and 1.037 and 0.970 and 1.091, the “Mean (Blank 450)” value ([2]; 1 uM) was 0.226 and the “Fold (mean)” value ([2]; 1 uM) was 1.01. The “Blank 450” value ([2]; 1 uM) was 0.235 and 0.232 and 0.211 and 0.225, the Fold ([2]; 1 uM) was 1.055 and 1.042 and 0.947 and 1.010 and the “Mean (Blank 450)” value ([2]; 5 uM) was 0.222. The “Fold (mean)” value ([2]; 5 uM) was 1.00, the “Blank 450” value ([2]; 5 uM) was 0.201 and 0.215 and 0.233 and 0.239 and the Fold ([2]; 5 uM) was 0.902 and 0.965 and 1.046 and 1.073. The “Mean (Blank 450)” value ([2]; 10 uM) was 0.220, the “Fold (mean)” value ([2]; 10 uM) was 0.99 and the “Blank 450” value ([2]; 10 uM) was 0.218 and 0.227 and 0.225 and 0.209. For the same molecule, the Fold ([2]; 10 uM) was 0.979 and 1.019 and 1.010 and 0.938, the “Mean (Blank 450)” value ([2]; 100 uM) was 0.208 and the “Fold (mean)” value ([2]; 100 uM) was 0.93. For the same molecule, the “Blank 450” value ([2]; 100 uM) was 0.197 and 0.209 and 0.218 and 0.206, the Fold ([2]; 100 uM) was 0.884 and 0.938 and 0.979 and 0.925 and the “cytotoxicity compared with suramin” value [2] was “less toxic”.

With O=C(Nc1ccc(C(=O)Nc2cc(S(=O)(=O)O)cc3cc(S(=O)(=O)O)cc(S(=O)(=O)O)c23)s1)Nc1ccc(C(=O)Nc2cc(S(=O)(=O)O)cc3cc(S(=O)(=O)O)cc(S(=O)(=O)O)c23)s1 [Compound 21, Sodium 8,8'-((5,5'-(carbonylbis (azanediyl))bis (thiophene-5,2-diyl-2-carbonyl))bis (azanediyl)) bis (naphthalene-1,3,6-trisulfonate)] the Kd [4] was 15.9 µM, the IC50 at 48 h [1] was over 100 µM and the “Mean (Blank 450)” value ([2]; 1 uM) was 1.167. For the same molecule, the “Fold (mean)” value ([2]; 1 uM) was 1.00, the “Blank 450” value ([2]; 1 uM) was 1.107 and 1.215 and 1.169 and 1.177 and the Fold ([2]; 1 uM) was 0.950 and 1.043 and 1.003 and 1.010. For the same molecule, the “Mean (Blank 450)” value ([2]; 5 uM) was 1.178, the “Fold (mean)” value ([2]; 5 uM) was 1.01 and the “Blank 450” value ([2]; 5 uM) was 1.145 and 1.151 and 1.183 and 1.233. For the same molecule, the Fold ([2]; 5 uM) was 0.983 and 0.988 and 1.015 and 1.058, the “Mean (Blank 450)” value ([2]; 10 uM) was 1.163 and the “Fold (mean)” value ([2]; 10 uM) was 1.00. For the same molecule, the “Blank 450” value ([2]; 10 uM) was 1.136 and 1.167 and 1.187 and 1.163, the Fold ([2]; 10 uM) was 0.975 and 1.002 and 1.019 and 0.998 and the “Mean (Blank 450)” value ([2]; 50 uM) was 1.124. The “Fold (mean)” value ([2]; 50 uM) was 0.96, the “Blank 450” value ([2]; 50 uM) was 1.137 and 1.128 and 1.113 and 1.119 and the Fold ([2]; 50 uM) was 0.976 and 0.968 and 0.955 and 0.960. For the same molecule, the “Mean (Blank 450)” value ([2]; 100 uM) was 1.021, the “Fold (mean)” value ([2]; 100 uM) was 0.88 and the “Blank 450” value ([2]; 100 uM) was 1.046 and 1.075 and 0.916. The Fold ([2]; 100 uM) was 0.898 and 0.923 and 0.786, the “cytotoxicity compared with suramin” value [2] was “less toxic” and the IC50 at 48 h [3] was 628 ± 1.45 µM.
